Results published in PubChem BioAssay (NCI).
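Where inhibition never reached the appropriate level, the endpoint shown equals the highest concentration tested. Otherwise, values were interpolated linearly from a five-concentration, 48-hour dose response in 96-well plates. TGI: concentration producing complete growth inhibition.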

What was measured:
Experiment in all cases: DTP human tumour cell line panel, 48 h
786-0 renal = system: 786-0 renal
A498 renal = system: A498 renal
A549 NSCLC = system: A549 NSCLC
ACHN renal = system: ACHN renal
BT-549 breast = system: BT-549 breast
CAKI-1 renal = system: CAKI-1 renal
CCRF-CEM leukemia = system: CCRF-CEM leukemia
COLO 205 colon = system: COLO 205 colon
DU-145 prostate = system: DU-145 prostate
EKVX NSCLC = system: EKVX NSCLC
HCC-2998 colon = system: HCC-2998 colon
HCT-116 colon = system: HCT-116 colon
HCT-15 colon = system: HCT-15 colon
HL-60(TB) leukemia = system: HL-60(TB) leukemia
HOP-62 NSCLC = system: HOP-62 NSCLC
HOP-92 NSCLC = system: HOP-92 NSCLC
HS 578T breast = system: HS 578T breast
HT29 colon = system: HT29 colon
IGROV1 ovarian = system: IGROV1 ovarian
K-562 leukemia = system: K-562 leukemia
KM12 colon = system: KM12 colon
LOX IMVI melanoma = system: LOX IMVI melanoma
M14 melanoma = system: M14 melanoma
MALME-3M melanoma = system: MALME-3M melanoma
MCF7 breast = system: MCF7 breast
MDA-MB-231 breast = system: MDA-MB-231 breast
MDA-MB-435 = system: MDA-MB-435
MDA-N = system: MDA-N
MOLT-4 leukemia = system: MOLT-4 leukemia
NCI-H226 lung = system: NCI-H226 lung
NCI-H23 lung = system: NCI-H23 lung
NCI-H460 lung = system: NCI-H460 lung
NCI-H522 lung = system: NCI-H522 lung
NCI/ADR-RES ovarian = system: NCI/ADR-RES ovarian
OVCAR-3 ovarian = system: OVCAR-3 ovarian
OVCAR-4 ovarian = system: OVCAR-4 ovarian
OVCAR-5 ovarian = system: OVCAR-5 ovarian
OVCAR-8 ovarian = system: OVCAR-8 ovarian
PC-3 prostate = system: PC-3 prostate
RPMI-8226 leukemia = system: RPMI-8226 leukemia
RXF 393 renal = system: RXF 393 renal
SF-268 CNS = system: SF-268 CNS
SF-295 CNS = system: SF-295 CNS
SF-539 CNS = system: SF-539 CNS
SK-MEL-2 melanoma = system: SK-MEL-2 melanoma
SK-MEL-28 melanoma = system: SK-MEL-28 melanoma
SK-MEL-5 melanoma = system: SK-MEL-5 melanoma
SK-OV-3 ovarian = system: SK-OV-3 ovarian
SN12C renal = system: SN12C renal
SNB-19 CNS = system: SNB-19 CNS
SNB-75 CNS = system: SNB-75 CNS
SW-620 colon = system: SW-620 colon
T-47D breast = system: T-47D breast
TK-10 renal = system: TK-10 renal
U251 CNS = system: U251 CNS
UACC-257 melanoma = system: UACC-257 melanoma
UACC-62 melanoma = system: UACC-62 melanoma
UO-31 renal = system: UO-31 renal
SR leukemia = system: SR leukemia

COC(=O)c1cc(OC)c(OC)c(OC)c1-c1cc2c(cc1C=O)OCO2
TGI (786-0 renal): > 10 µM | TGI (A498 renal): > 10 µM | TGI (A549 NSCLC): > 10 µM | TGI (ACHN renal): > 10 µM | TGI (BT-549 breast): > 10 µM | TGI (CAKI-1 renal): > 10 µM | TGI (CCRF-CEM leukemia): > 10 µM | TGI (COLO 205 colon): > 10 µM | TGI (DU-145 prostate): > 10 µM | TGI (EKVX NSCLC): > 10 µM | TGI (HCC-2998 colon): > 10 µM | TGI (HCT-116 colon): > 10 µM | TGI (HCT-15 colon): > 10 µM | TGI (HL-60(TB) leukemia): > 10 µM | TGI (HOP-62 NSCLC): > 10 µM | TGI (HOP-92 NSCLC): > 10 µM | TGI (HS 578T breast): > 10 µM | TGI (HT29 colon): > 10 µM | TGI (IGROV1 ovarian): > 10 µM | TGI (K-562 leukemia): > 10 µM | TGI (KM12 colon): > 10 µM | TGI (LOX IMVI melanoma): > 10 µM | TGI (M14 melanoma): > 10 µM | TGI (MALME-3M melanoma): > 10 µM | TGI (MCF7 breast): > 10 µM | TGI (MDA-MB-231 breast): > 10 µM | TGI (MDA-MB-435): > 10 µM | TGI (MDA-N): > 10 µM | TGI (MOLT-4 leukemia): > 10 µM | TGI (NCI-H226 lung): > 10 µM | TGI (NCI-H23 lung): > 10 µM | TGI (NCI-H460 lung): > 10 µM | TGI (NCI-H522 lung): > 10 µM | TGI (NCI/ADR-RES ovarian): > 10 µM | TGI (OVCAR-3 ovarian): > 10 µM | TGI (OVCAR-4 ovarian): > 10 µM | TGI (OVCAR-5 ovarian): > 10 µM | TGI (OVCAR-8 ovarian): > 10 µM | TGI (PC-3 prostate): > 10 µM | TGI (RPMI-8226 leukemia): > 10 µM | TGI (RXF 393 renal): > 10 µM | TGI (SF-268 CNS): > 10 µM | TGI (SF-295 CNS): > 10 µM | TGI (SF-539 CNS): > 10 µM | TGI (SK-MEL-2 melanoma): > 10 µM | TGI (SK-MEL-28 melanoma): > 10 µM | TGI (SK-MEL-5 melanoma): > 10 µM | TGI (SK-OV-3 ovarian): > 10 µM | TGI (SN12C renal): > 10 µM | TGI (SNB-19 CNS): > 10 µM | TGI (SNB-75 CNS): > 10 µM | TGI (SW-620 colon): > 10 µM | TGI (T-47D breast): > 10 µM | TGI (TK-10 renal): > 10 µM | TGI (U251 CNS): > 10 µM | TGI (UACC-257 melanoma): > 10 µM | TGI (UACC-62 melanoma): > 10 µM | TGI (UO-31 renal): > 10 µM

C/C(=C/CC[C@]1(CO)CC[C@]2(C)[C@H](CC[C@@H]3[C@@]4(C)CC[C@H](OC5OC(CO)C(O)C(O)C5OC5OC(CO)C(O)C(O)C5O)C(C)(C)[C@@H]4CC[C@]32C)[C@H]1O)CO (stereo partly drawn)
TGI (786-0 renal): > 100 µM | TGI (A498 renal): > 100 µM | TGI (A549 NSCLC): > 100 µM | TGI (ACHN renal): > 100 µM | TGI (BT-549 breast): > 100 µM | TGI (CAKI-1 renal): > 100 µM | TGI (CCRF-CEM leukemia): > 100 µM | TGI (COLO 205 colon): > 100 µM | TGI (DU-145 prostate): > 100 µM | TGI (EKVX NSCLC): > 100 µM | TGI (HCT-116 colon): > 100 µM | TGI (HCT-15 colon): > 100 µM | TGI (HL-60(TB) leukemia): > 100 µM | TGI (HOP-62 NSCLC): > 100 µM | TGI (HOP-92 NSCLC): > 100 µM | TGI (HS 578T breast): > 100 µM | TGI (HT29 colon): > 100 µM | TGI (IGROV1 ovarian): > 100 µM | TGI (K-562 leukemia): > 100 µM | TGI (KM12 colon): > 100 µM | TGI (LOX IMVI melanoma): > 100 µM | TGI (M14 melanoma): > 100 µM | TGI (MALME-3M melanoma): > 100 µM | TGI (MCF7 breast): > 100 µM | TGI (MDA-MB-231 breast): > 100 µM | TGI (MDA-MB-435): > 100 µM | TGI (MDA-N): > 100 µM | TGI (MOLT-4 leukemia): > 100 µM | TGI (NCI-H226 lung): > 100 µM | TGI (NCI-H23 lung): > 100 µM | TGI (NCI-H460 lung): > 100 µM | TGI (NCI-H522 lung): > 100 µM | TGI (NCI/ADR-RES ovarian): > 100 µM | TGI (OVCAR-3 ovarian): > 100 µM | TGI (OVCAR-4 ovarian): > 100 µM | TGI (OVCAR-5 ovarian): > 100 µM | TGI (OVCAR-8 ovarian): > 100 µM | TGI (PC-3 prostate): > 100 µM | TGI (RPMI-8226 leukemia): > 100 µM | TGI (RXF 393 renal): > 100 µM | TGI (SF-268 CNS): > 100 µM | TGI (SF-295 CNS): > 100 µM | TGI (SF-539 CNS): > 100 µM | TGI (SK-MEL-28 melanoma): > 100 µM | TGI (SK-MEL-5 melanoma): > 100 µM | TGI (SK-OV-3 ovarian): > 100 µM | TGI (SN12C renal): > 100 µM | TGI (SNB-19 CNS): > 100 µM | TGI (SNB-75 CNS): > 100 µM | TGI (SR leukemia): > 100 µM | TGI (SW-620 colon): > 100 µM | TGI (T-47D breast): > 100 µM | TGI (TK-10 renal): > 100 µM | TGI (U251 CNS): > 100 µM | TGI (UACC-257 melanoma): > 100 µM | TGI (UACC-62 melanoma): > 100 µM | TGI (UO-31 renal): > 100 µM

C=C(Cl)C(Cl)(CCl)CCC(Br)C(C)(C)Br (stereo not drawn)
TGI (786-0 renal): > 10 µM | TGI (A498 renal): > 10 µM | TGI (A549 NSCLC): > 10 µM | TGI (ACHN renal): > 10 µM | TGI (BT-549 breast): > 10 µM | TGI (CAKI-1 renal): > 10 µM | TGI (CCRF-CEM leukemia): > 10 µM | TGI (COLO 205 colon): > 10 µM | TGI (DU-145 prostate): > 10 µM | TGI (EKVX NSCLC): > 10 µM | TGI (HCC-2998 colon): > 10 µM | TGI (HCT-116 colon): > 10 µM | TGI (HCT-15 colon): > 10 µM | TGI (HL-60(TB) leukemia): > 10 µM | TGI (HOP-62 NSCLC): > 10 µM | TGI (HOP-92 NSCLC): > 10 µM | TGI (HT29 colon): > 10 µM | TGI (IGROV1 ovarian): > 10 µM | TGI (K-562 leukemia): > 10 µM | TGI (KM12 colon): > 10 µM | TGI (M14 melanoma): > 10 µM | TGI (MCF7 breast): > 10 µM | TGI (MDA-MB-231 breast): > 10 µM | TGI (MDA-MB-435): > 10 µM | TGI (MDA-N): > 10 µM | TGI (MOLT-4 leukemia): > 10 µM | TGI (NCI-H226 lung): > 10 µM | TGI (NCI-H23 lung): > 10 µM | TGI (NCI-H522 lung): > 10 µM | TGI (OVCAR-3 ovarian): > 10 µM | TGI (OVCAR-4 ovarian): > 10 µM | TGI (OVCAR-5 ovarian): > 10 µM | TGI (OVCAR-8 ovarian): > 10 µM | TGI (PC-3 prostate): > 10 µM | TGI (RPMI-8226 leukemia): > 10 µM | TGI (RXF 393 renal): > 10 µM | TGI (SF-268 CNS): > 10 µM | TGI (SF-295 CNS): > 10 µM | TGI (SF-539 CNS): > 10 µM | TGI (SK-MEL-2 melanoma): > 10 µM | TGI (SK-MEL-28 melanoma): > 10 µM | TGI (SK-MEL-5 melanoma): > 10 µM | TGI (SK-OV-3 ovarian): > 10 µM | TGI (SN12C renal): > 10 µM | TGI (SNB-19 CNS): > 10 µM | TGI (SNB-75 CNS): > 10 µM | TGI (SR leukemia): > 10 µM | TGI (SW-620 colon): > 10 µM | TGI (T-47D breast): > 10 µM | TGI (TK-10 renal): > 10 µM | TGI (U251 CNS): > 10 µM | TGI (UACC-62 melanoma): > 10 µM | TGI (UO-31 renal): > 10 µM
